The values below come from patent US4424218A, “Novel 3 α-amino steroids” (Roussel Uclaf, priority 1979, dated 1984).

Structures can show the parent of a compound that is named as a salt. Where two headings read alike, the source gives them in different places. A value given as a limit tells only on which side of the number the result lay.

Series [1] deals with mice. Kind of series: Acute toxicity. In kind it is in vivo. As to conditions: orally.
Series [2] deals with anaphylactic shock. Kind of series: Adjuvant for anaphylactic shock (beef seric albumin). As to conditions: intraplantary, admixed with antigen; antigen intravenously 8 days later. Type of series: in vivo, mice. An excerpt:
C. Adjuvant for anaphylactic shock
The administration to animals of a compound capable of stimulating the activity of immunitary systems leads to an increase in response to administration of antigen to which the animal is sensitive. Male mice weighing between 30 to 35 g were sensitized by intraplantary administration of beef seric albumin. 8 days later, the mice received intraveinously an antigen and under the minimum sensibilization conditions, the control animals were not in mortal shock at the time of the last administration.
The active dose which provoked a mortality equal to or greater than 50% of the animals was determined and the results are reported in Table I.

The test system of series [3] is rosettes to sheep red corpuscles. Put plainly: Test of Rosettes to sheep red corpuscles. Type of series: in vivo, rats. Conditions: Rattus norvegicus, po, 24 h, read-out: immunostimulating dose which multiplied by 2 the percentage of rosettes observed in the control animals. An excerpt:
D. Test of Rosettes to sheep red corpuscles
The administration to animals of a product capable of stimulating the immunitary systems leads to an increase of their capacity of reaction to the injection of an immunogenic product. 3 month old male rats were sensibilized by intraperitoneal administration of sheep erythrocytoes on day 0 and 7 days later, the spleen was removed and splenocytes were placed in contact with sheep erythrocytes. The percentage of leucocytes around the erythrocytes in the form of rosettes was determined. The test compounds were orally administered daily from day-1 to day 1 and immunostimulating dose is the dose of product which multiplied by 2 the percentage of rosettes observed in the control animals and the results are reported in Table II.

Series [4] deals with IgE production. Kind of series: Potentialization of IgE production (passive cutaneous anaphylaxia test). Type of series: in vivo, mice. As to conditions: for minimal effective dose: Mus musculus, sc, read-out: active dose, potentialization of IgE production. The protocol: A. Potentialization of IgE production
Female mice weighing between 28 to 30 g were immunized by subcutaneous administration of an ovalbumin-alumina mixture on days 0 and 14 and serum was taken on the 21st day for dosage of IgE antibodies formed. The respective quantities of antigen (ovalbumin) and adjuvant (alumina) injected was selected so as to keep production of antibodies at a minimum. The test compounds were administered subcutaneously 3 hours before the first immunization.
The research of the larger dilution of serum which gives a spot of a 11 to 13 mm diameter for each animal is made. An adequate dilution of serum was injected intradermally with a volume of 0.1 ml in male rats weighing about 250 g in the region of the back. 48 hours later, the animals received veinously 0.5 ml of a solution of 0.5% of ovalbumin and 1% of Evans blue in an isotonic solution of sodium chloride. 30 minutes after this injection, the animals were killed by exsanguination and the diameter of the blue spot on turned over skin is measured.

Series [5] relates to secondary arthritis. Kind of series: Adjuvant for chronic arthritis (Freund type adjuvant). Type of series: in vivo, rat. As to conditions: for ED50: Rattus norvegicus, read-out: active dose which diminished the secondary inflammation by at least 50%. The protocol: B. Adjuvant for chronic arthritis
The injection of a Freund type adjuvant (Mycobacterium butyricum at 6 mg/ml in Bayol 55) into the posterium paw of a rat provokes a primary inflammatory lesion and then after a latency period of 13 to 15 days, initiation of secondary inflammation affecting the other non-injected rear paw as well as the front paws, the ears and the tail.
Male rats aged 42 to 50 days received an intraplantary injection of 0.10 ml of Freund adjuvant and treatment started the day of the adjuvant injection and continued until the animals were killed on the 17th day. […] In this test, the effect on secondary inflammations was essentially observed, it was determined by the arthritis of the non-injected rear paw, arthritis of the front paws and the inflammation of the ears and tail.

[6] abbreviates: orally, daily from day -1 to day 1.

On to `C[C@H](N)C(=O)N[C@@H]1CC[C@@]2(C)[C@@H](CC[C@@H]3[C@@H]2CC[C@]2(C)[C@@H]([C@H](C)O)CC[C@@H]32)C1` [Example 2, (2S) 2-amino-N-[(20S)-5α-pregnan-20-ol-3α-yl]-propanamide], for which, in series [1], the “DL0 (lethal dose LD0, maximum dose which did not cause any mortality after 8 days)” value stood at 200 mg/kg. The “active dose which provoked a mortality equal to or greater than 50% of the animals” value in series [2] is given as 0.5 mg per animal. The ED (2-fold rosettes) in series [3] (setting [6]) stood at 1 mg/kg.
Consider `C[C@H](O)[C@H]1CC[C@H]2[C@@H]3CC[C@H]4C[C@H](NC(=O)[C@@H](N)CCC(=O)O)CC[C@]4(C)[C@H]3CC[C@]12C` [Example 3], for which the “DL0 (lethal dose LD0, maximum dose which did not cause any mortality after 8 days)” value in series [1] was ≥ 400 mg/kg. Also, the “active dose which provoked a mortality equal to or greater than 50% of the animals” value in series [2] is given as ≤ 1 mg per animal.
As for `C[C@H](O)[C@H]1CC[C@H]2[C@@H]3CC[C@H]4C[C@H](NC(=O)[C@@H](N)CO)CC[C@]4(C)[C@H]3CC[C@]12C` [Example 4], in series [1], the “DL0 (lethal dose LD0, maximum dose which did not cause any mortality after 8 days)” value is ≥ 400 mg/kg.
As for `C[C@H](O)[C@H]1CC[C@H]2[C@@H]3CC[C@H]4C[C@H](NC(=O)[C@@H](N)Cc5ccccc5)CC[C@]4(C)[C@H]3CC[C@]12C` [Example 5], the “DL0 (lethal dose LD0, maximum dose which did not cause any mortality after 8 days)” value in series [1] is ≥ 400 mg/kg. Besides, the “active dose which provoked a mortality equal to or greater than 50% of the animals” value in series [2] stood at 5 mg per animal.
With `C[C@H](O)[C@H]1CC[C@H]2[C@@H]3CC[C@H]4C[C@H](NC(=O)[C@@H](N)Cc5c[nH]c6ccccc56)CC[C@]4(C)[C@H]3CC[C@]12C` [Example 6, (2S) 2-amino-N-[(20S) 5α-pregnane-20-ol-3α-yl]-1H-indol-3-propanamide], in series [1], the “DL0 (lethal dose LD0, maximum dose which did not cause any mortality after 8 days)” value is listed as ≥ 1000 mg/kg. Also, the “active dose which provoked a mortality equal to or greater than 50% of the animals” value in series [2] was found to be 5 mg per animal. Moreover, in series [3] (setting [6]), the ED (2-fold rosettes) amounted to 2 mg/kg.
The matching figures for `C[C@H](O)[C@H]1CC[C@H]2[C@@H]3CC[C@H]4C[C@H](NC(=O)[C@@H]5CCCN5)CC[C@]4(C)[C@H]3CC[C@]12C` [Example 7]: ≥ 800 mg/kg, 2 mg per animal and > 5 mg/kg.
Regarding `C[C@H](O)[C@H]1CC[C@H]2[C@@H]3CC[C@H]4C[C@H](NC(=O)CNC(=O)CN)CC[C@]4(C)[C@H]3CC[C@]12C` [Example 8], the “DL0 (lethal dose LD0, maximum dose which did not cause any mortality after 8 days)” value in series [1] is reported as ≥ 400 mg/kg. In series [2], the “active dose which provoked a mortality equal to or greater than 50% of the animals” value stood at 1 mg per animal.
With `C[C@H](O)[C@H]1CC[C@H]2[C@@H]3CC[C@H]4C[C@H](NC(=O)c5cccnc5)CC[C@]4(C)[C@H]3CC[C@]12C` [Example 9, N-[(20S)5α-pregnan-20-ol-3α-yl]-3-pyridinecarboxamide], in series [2], the “active dose which provoked a mortality equal to or greater than 50% of the animals” value was 5 mg per animal. Further, the ED (2-fold rosettes) in series [3] (setting [6]) is 5 mg/kg.
As for `C[C@H](O)[C@@]1(O)CC[C@H]2[C@@H]3CC[C@H]4C[C@H](NC(=O)CN)CC[C@]4(C)[C@H]3CC[C@@]21C` [Example 10, 2-amino-N-[(20S) 5α-pregnane-17α,20-diol-3α-yl]-acetamide hydrochloride], the “DL0 (lethal dose LD0, maximum dose which did not cause any mortality after 8 days)” value in series [1] is ≥ 600 mg/kg. For the same compound, in series [2], the “active dose which provoked a mortality equal to or greater than 50% of the animals” value came to 1 mg per animal.
As to `C[C@H](O)[C@H]1CC[C@H]2[C@@H]3CC[C@H]4C[C@H](NC(=O)CN)CC[C@@H]4[C@H]3CC[C@]12C` [Example 11, 2-amino-N-[(20S) 19-nor-5α-pregnane-20-ol-3α-yl]-acetamide hydrochloride], the “DL0 (lethal dose LD0, maximum dose which did not cause any mortality after 8 days)” value in series [1] is on record as ≥ 400 mg/kg. In addition, the “active dose which provoked a mortality equal to or greater than 50% of the animals” value in series [2] was 0.5 mg per animal. For the same compound, the ED (2-fold rosettes) in series [3] (setting [6]) is 5 mg/kg.
As for `CC(=O)[C@@]1(O)CC[C@H]2[C@@H]3CC[C@H]4C[C@H](NC(=O)CN)CC[C@]4(C)[C@H]3CC[C@@]21C` [Example 12, 2-amino-N-[(5α-pregnane-17α-ol-20-one-3α-yl]-acetamide hydrochloride], the ED (2-fold rosettes) in series [3] (setting [6]) is 5 mg/kg.
Take `CCOC(=O)N[C@@H]1CC[C@@]2(C)[C@@H](CC[C@@H]3[C@@H]2CC[C@]2(C)[C@@H]([C@H](C)O)CC[C@@H]32)C1` [Example 14, Ethyl N-[(20S)5α-pregnane-20-ol-3α-yl]-carbamate]: the “DL0 (lethal dose LD0, maximum dose which did not cause any mortality after 8 days)” value in series [1] is on record as ≥ 400 mg/kg. Further, the “active dose which provoked a mortality equal to or greater than 50% of the animals” value in series [2] came out at 5 mg per animal.
Take `C[C@H](O)[C@H]1CC[C@H]2[C@@H]3CC[C@H]4C[C@H](N(C)C(=O)CN)CC[C@]4(C)[C@H]3CC[C@]12C.Cl` [Example 15, 2-amino-N-[(20S) 5α-pregnane-20-ol-3α-yl]-N-methyl-acetamide hydrochloride]: the “DL0 (lethal dose LD0, maximum dose which did not cause any mortality after 8 days)” value in series [1] is given as ≥ 200 mg/kg. The “active dose which provoked a mortality equal to or greater than 50% of the animals” value in series [2] amounted to 0.5 mg per animal. Also, the ED (2-fold rosettes) in series [3] turned out to be 10 mg/kg.
For the compound `c1ccc([C@H]2CN3CCSC3=N2)cc1` [Levamisole, reference compound], the minimal effective dose in series [4] (subcutaneous, 3 hours before first immunization, ovalbumin-alumina) turned out to be 20 mg/kg. Further, in series [5] (po, orally, treatment from day of adjuvant injection to 17th day), the ED50 was determined as 50 mg/kg.
As to `C[C@H](O)[C@H]1CC[C@H]2[C@@H]3CC[C@H]4C[C@H](NC(=O)CN)CC[C@]4(C)[C@H]3CC[C@]12C.Cl` [Product A, (20S) 3α-[(aminoacetyl)-amino]-5α-pregnane-20-ol hydrochloride], the minimal effective dose in series [4] was found to be 0.5 mg/kg. For the same compound, the “immunostimulating activity in IgE test (in words)” value in series [4] (subcutaneous, compared with Levamisole) is “greater immunostimulating activity than Levamisole”. For the same compound, in series [5] (sc), the ED50 was 1 mg/kg. In addition, in series [5] (subcutaneously, compared with Levamisole), the “activity against secondary phenomena of arthritis of adjuvant (in words)” value is recorded as “very active against secondary phenomena of arthritis of adjuvant”.
